Compound | melting point [°C]
CCCc1cc(-c2ccc(Cl)cc2)nc2c(C#Cc3ccc(N)nc3)cnn12 [Example 305, 5-[5-(4-Chloro-phenyl)-7-propyl-pyrazolo[1,5-a]pyrimidin-3-ylethynyl]-pyridin-2-ylamine] | 215 to 217
O=S(=O)(NC(CO)CO)c1ccc(C#Cc2cnn3c(C(F)(F)F)cc(-c4cccc(C(F)(F)F)c4)nc23)s1 [Example 271, 5-[7-Trifluoromethyl-5-(3-trifluoromethyl-phenyl)-pyrazolo[1,5-a]pyrimidin-3-ylethynyl]-thiophene-2-sulfonic acid (2-hydroxy-1-hydroxymethyl-ethyl)-amide] | 210
CC(C)(CO)NS(=O)(=O)c1cnc(C#Cc2cnn3c(C4CC4)cc(-c4ccc(Cl)cc4)nc23)s1 [Example 64, 2-[5-(4-Chloro-phenyl)-7-cyclopropyl-pyrazolo[1,5-a]pyrimidin-3-ylethynyl]-thiazole-5-sulfonic acid (2-hydroxy-1,1-dimethyl-ethyl)-amide] | 204 to 207
Cc1cc(-c2ccc(Cl)cc2)cn2c(C#Cc3cnc(N)nc3)cnc12 [Example 221, 5-[6-(4-Chloro-phenyl)-8-methyl-imidazo[1,2-a]pyridin-3-ylethynyl]-pyrimidin-2-ylamine] | 263
O=S(=O)(NCCO)c1cc(C#Cc2cnn3c(C(F)F)cc(-c4ccc(C(F)(F)F)cc4)nc23)c(F)cc1F [Example 135, 5-[7-Difluoromethyl-5-(4-trifluoromethyl-phenyl)-pyrazolo[1,5-a]pyrimidin-3-ylethynyl]-2,4-difluoro-N-(2-hydroxy-ethyl)-benzenesulfonamide] | 149 to 150
NS(=O)(=O)c1cccc(C#Cc2cnn3c(C4CC4)cc(-c4ccc(Cl)cc4)nc23)c1 [Example 72, 3-[5-(4-Chloro-phenyl)-7-cyclopropyl-pyrazolo[1,5-a]pyrimidin-3-ylethynyl]-benzenesulfonamide] | 236 to 237
CN(C)CCNS(=O)(=O)c1ccc(C#Cc2ncn3c(C(F)(F)F)cc(-c4ccc(C(F)(F)F)cc4)nc23)s1 [Example 267, 5-[4-Trifluoromethyl-2-(4-trifluoromethyl-phenyl)-imidazo[1,5-a]pyrimidin-8-ylethynyl]-thiophene-2-sulfonic acid (2-dimethylamino-ethyl)-amide] | 178
NS(=O)(=O)c1ccc(C#Cc2cnc3c(C(F)(F)F)cc(-c4ccc(C(F)(F)F)cc4)cn23)s1 [Example 193, 5-[8-Trifluoromethyl-6-(4-trifluoromethyl-phenyl)-imidazo[1,2-a]pyridin-3-ylethynyl]-thiophene-2-sulfonic acid amide] | 248 to 250
CNC(=O)c1ccc(C#Cc2cnn3c(C4CC4)cc(-c4ccc(Cl)cc4)nc23)cc1 [Example 306, 4-[5-(4-Chloro-phenyl)-7-cyclopropyl-pyrazolo[1,5-a]pyrimidin-3-ylethynyl]-N-methyl-benzamide] | 214 to 216
O=S(=O)(Nc1ccncc1)c1ccc(C#Cc2cnn3c(C(F)F)cc(-c4ccc(C(F)(F)F)cc4)nc23)s1 [Example 282, 5-[7-Difluoromethyl-5-(4-trifluoromethyl-phenyl)-pyrazolo[1,5-a]pyrimidin-3-ylethynyl]-thiophene-2-sulfonic acid pyridin-4-ylamide] | 215
Nc1ccc(C#Cc2cnn3c(CO)cc(-c4ccc(Cl)cc4)nc23)cn1 [Example 298, [3-(6-Amino-pyridin-3-ylethynyl)-5-(4-chloro-phenyl)-pyrazolo[1,5-a]pyrimidin-7-yl]-methanol] | 215 to 217
Cc1cc(-c2ccc(C(F)(F)F)cc2)cn2c(C#Cc3ccc(S(N)(=O)=O)s3)cnc12 [Example 212, 5-[8-Methyl-6-(4-trifluoromethyl-phenyl)-imidazo[1,2-a]pyridin-3-ylethynyl]-thiophene-2-sulfonic acid amide] | 270
NS(=O)(=O)c1cc(C#Cc2cnn3c(C(F)(F)F)cc(-c4ccc(Cl)c(Cl)c4)nc23)c(F)cc1F [Example 92, 5-[5-(3,4-Dichloro-phenyl)-7-trifluoromethyl-pyrazolo[1,5-a]pyrimidin-3-ylethynyl]-2,4-difluoro-benzenesulfonamide] | 308 to 310
NS(=O)(=O)c1cc(C#Cc2cnn3c(C4CC4)cc(-c4ccc(C(F)(F)F)cc4)nc23)c(F)cc1F [Example 77, 5-[7-Cyclopropyl-5-(4-trifluoromethyl-phenyl)-pyrazolo[1,5-a]pyrimidin-3-ylethynyl]-2,4-difluoro-benzenesulfonamide] | 255 to 257
O=S(=O)(Nc1cccnc1)c1ccc(C#Cc2cnn3c(C(F)(F)F)cc(-c4ccc(C(F)(F)F)cc4)nc23)s1 [Example 279, 5-[7-Trifluoromethyl-5-(4-trifluoromethyl-phenyl)-pyrazolo[1,5-a]pyrimidin-3-ylethynyl]-thiophene-2-sulfonic acid pyridin-3-ylamide] | 248
CC(C)(CO)NS(=O)(=O)c1cnc(C#Cc2cnn3c(C(F)(F)F)cc(-c4ccc(Cl)c(Cl)c4)nc23)s1 [Example 90, 2-[5-(3,4-Dichloro-phenyl)-7-trifluoromethyl-pyrazolo[1,5-a]pyrimidin-3-ylethynyl]-thiazole-5-sulfonic acid (2-hydroxy-1,1-dimethyl-ethyl)-amide] | 220 to 223
Nc1ccc(C#Cc2cnc3c(F)cc(-c4ccc(Cl)cc4)cn23)cn1 [Example 241, 5-[6-(4-Chloro-phenyl)-8-fluoro-imidazo[1,2-a]pyridin-3-ylethynyl]-pyridin-2-ylamine] | 259
COc1ccc(C#Cc2cnn3c(C(F)F)cc(-c4ccc(C(F)(F)F)cc4)nc23)cc1S(=O)(=O)NC(C)(C)CO [Example 43, 5-[7-Difluoromethyl-5-(4-trifluoromethyl-phenyl)-pyrazolo[1,5-a]pyrimidin-3-ylethynyl]-N-(2-hydroxy-1,1-dimethyl-ethyl)-2-methoxy-benzenesulfonamide] | 178 to 180
NS(=O)(=O)c1cc(C#Cc2cnn3c(C4CC4)cc(-c4ccc(Cl)c(Cl)c4)nc23)c(F)cc1F [Example 85, 5-[7-Cyclopropyl-5-(3,4-dichloro-phenyl)-pyrazolo[1,5-a]pyrimidin-3-ylethynyl]-2,4-difluoro-benzenesulfonamide] | 280 to 281

Continued, values first:

melting point [°C] | Compound
177 | Nc1ccc(C#Cc2cnn3c(C(F)(F)F)cc(-c4cccc(C(F)(F)F)c4)nc23)cn1 [Example 259, 5-[7-Trifluoromethyl-5-(3-trifluoromethyl-phenyl)-pyrazolo[1,5-a]pyrimidin-3-ylethynyl]-pyridin-2-ylamine]
173 to 178 | O=S(=O)(c1cncc(C#Cc2cnn3c(C(F)(F)F)cc(-c4ccc(C(F)(F)F)cc4)nc23)c1)N(CCO)CCO [Example 13, 5-[7-Trifluoromethyl-5-(4-trifluoromethyl-phenyl)-pyrazolo[1,5-a]pyrimidin-3-ylethynyl]-pyridine-3-sulfonic acid bis-(2-hydroxy-ethyl)-amide]
177 | OCc1cccc(C#Cc2cnn3c(C(F)(F)F)cc(-c4ccc(C(F)(F)F)cc4)nc23)c1 [Example 204, {3-[7-Trifluoromethyl-5-(4-trifluoromethyl-phenyl)-pyrazolo[1,5-a]pyrimidin-3-ylethynyl]-phenyl}-methanol]
294 | Cc1cc(-c2cc(C(F)(F)F)n3ncc(C#Cc4cc(S(N)(=O)=O)c(F)cc4F)c3n2)ccc1Cl [Example 111, 5-[5-(4-Chloro-3-methyl-phenyl)-7-trifluoromethyl-pyrazolo[1,5-a]pyrimidin-3-ylethynyl]-2,4-difluoro-benzenesulfonamide]
196 | Cc1cc(-c2cc(C(F)(F)F)n3ncc(C#Cc4cccnc4)c3n2)ccc1Cl [Example 101, 5-(4-Chloro-3-methyl-phenyl)-3-pyridin-3-ylethynyl-7-trifluoromethyl-pyrazolo[1,5-a]pyrimidine]
214 to 216 | Nc1ccc(C#Cc2cnn3c(C(F)(F)F)cc(-c4ccc(C(F)(F)F)cc4)nc23)nn1 [Example 246, 6-[7-Trifluoromethyl-5-(4-trifluoromethyl-phenyl)-pyrazolo[1,5-a]pyrimidin-3-ylethynyl]-pyridazin-3-ylamine]
252 to 256 | FC(F)(F)c1ccc(-c2cc(C(F)(F)F)n3ncc(C#Cc4ccncc4)c3n2)cc1 [Example 7, 3-Pyridin-4-ylethynyl-7-trifluoromethyl-5-(4-trifluoromethyl-phenyl)-pyrazolo[1,5-a]pyrimidine]
240 | Cc1cc(-c2cc(C(F)(F)F)n3ncc(C#Cc4cnc(N)nc4)c3n2)ccc1C(F)(F)F [Example 290, 5-[5-(3-Methyl-4-trifluoromethyl-phenyl)-7-trifluoromethyl-pyrazolo[1,5-a]pyrimidin-3-ylethynyl]-pyrimidin-2-ylamine]
202 to 203 | OCCNc1ccc(C#Cc2cnn3c(C(F)(F)F)cc(-c4ccc(C(F)(F)F)cc4)nc23)cn1 [Example 200, 2-{5-[7-Trifluoromethyl-5-(4-trifluoromethyl-phenyl)-pyrazolo[1,5-a]pyrimidin-3-ylethynyl]-pyridin-2-ylamino}-ethanol]
166 to 168 | COc1ccc(C#Cc2cnn3c(C(F)(F)F)cc(-c4ccc(C(F)(F)F)cc4)nc23)cn1 [Example 56, 3-(6-Methoxy-pyridin-3-ylethynyl)-7-trifluoromethyl-5-(4-trifluoromethyl-phenyl)-pyrazolo[1,5-a]pyrimidine]
187 | CNc1ccc(C#Cc2cnn3c(C(F)(F)F)cc(-c4ccc(C(F)(F)F)cc4)nc23)cn1 [Example 199, Methyl-{5-[7-trifluoromethyl-5-(4-trifluoromethyl-phenyl)-pyrazolo[1,5-a]pyrimidin-3-ylethynyl]-pyridin-2-yl}-amine]
196 | NCCNS(=O)(=O)c1ccc(C#Cc2cnn3c(C(F)(F)F)cc(-c4cccc(C(F)(F)F)c4)nc23)s1 [Example 262, 5-[7-Trifluoromethyl-5-(3-trifluoromethyl-phenyl)-pyrazolo[1,5-a]pyrimidin-3-ylethynyl]-thiophene-2-sulfonic acid (2-amino-ethyl)-amide]

Reference: patent US8063048B2, “Acetylenyl-pyrazolo-pyrimidine derivatives” (Hoffmann-La Roche Inc., priority 2005, dated 2011)
